In patent publication US20130150376A1, “Novel Sultam Compounds” (PFIZER INC., priority 2010, published 2013) one finds IC50 data, which are given here for 24 molecules.

Structures can show the parent of a compound that is named as a salt. Where two headings read alike, the source gives them in different places.

For this assay, the target named is T1, BACE1 enzyme (soluble, truncated BACE enzyme, BACE1deltaTM96His) (Homo sapiens, UniProt P56817).
T1 construct: soluble, truncated BACE enzyme (BACE1deltaTM96His); His; made in house
The assay can be described thus: BACE1 Fluorescent Polarization (FP) Assay. Conditions: geometric mean of 2-4 IC50 determinations unless footnoted (^2: 5-6 determinations; ^4: single determination). Format: biochemical. An excerpt: BACE1 Fluorescent Polarization (FP) Assay
The fluorescently tagged synthetic substrate, Biotin-GLTNIKTEEISEISŶEVEFR-C[oregon green]KK-OH can be efficiently cleaved by the beta-secretase enzyme and is therefore useful to assay beta-secretase activity in the presence or absence of inhibitory compounds. The his tagged BACE1 enzyme was affinity purified material from conditioned media of CHO-K1 cells that had been transfected to express soluble, truncated BACE enzyme (BACE1deltaTM96His). Compounds were incubated in a ½ log dose response (from a top concentration of 100 μM) with BACE1 enzyme (0.1 nM final) and the biotinylated fluorescent peptide substrate (150 nM final) in assay buffer containing 100 mM sodium acetate, pH 4.5 (brought to pH with acetic acid), and 0.001% Tween-20. Total reaction volumes of 30 μL were carried out in 384-well black plates (Thermo Scientific 4318). Plates were covered and incubated for 3 hours at 37° C. The reactions were then stopped by addition of 30 μL of 1.5 μM Streptavidin (Pierce, 21125). After a 10 minute incubation at room temperature, plates were read on a PerkinElmer Envision for fluorescence polarization (Ex485 nm/Em530 nm). The activity of the beta-secretase enzyme is detected by changes in the fluorescence polarization (Δ mP) that occur when the substrate is cleaved by the enzyme.

Setting [1] is: 8-point curve, read-out: BACE activity, 8-point curve, IC50.
[2] abbreviates: 11-point curve, read-out: BACE activity, 11-point curve, IC50.

T1 sequence (P56817 46-457): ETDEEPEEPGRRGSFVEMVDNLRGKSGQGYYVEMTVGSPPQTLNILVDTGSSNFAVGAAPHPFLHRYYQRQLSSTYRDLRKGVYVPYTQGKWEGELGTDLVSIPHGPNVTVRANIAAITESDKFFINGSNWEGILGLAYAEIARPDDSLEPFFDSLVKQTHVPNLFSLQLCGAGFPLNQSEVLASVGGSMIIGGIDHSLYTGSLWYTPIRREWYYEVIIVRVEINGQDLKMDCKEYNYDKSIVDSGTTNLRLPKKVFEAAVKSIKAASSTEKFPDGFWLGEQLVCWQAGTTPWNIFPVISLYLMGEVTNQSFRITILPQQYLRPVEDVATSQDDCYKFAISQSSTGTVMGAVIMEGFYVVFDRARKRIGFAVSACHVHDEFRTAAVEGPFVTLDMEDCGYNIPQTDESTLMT

Regarding `C[C@H]1C[C@@]2(C=CS(=O)(=O)N2c2cccc(F)c2)CCN1Cc1ccc(O)c(C2CCCC2)c1` [Example 7, 2-cyclopentyl-4-{[(5R,7S)-1-(3-fluorophenyl)-7-methyl-2,2-dioxido-2-thia-1,8-diazaspiro[4.5]dec-3-en-8-yl]methyl}phenol], under setting [1], the IC50 came to 0.0219 µM.

`C[C@H]1C[C@@]2(C=CS(=O)(=O)N2c2cccc(F)c2)CCN1Cc1ncoc1-c1cncnc1` [Example 23, (5R,7S)-1-(3-fluorophenyl)-7-methyl-8-[(5-pyrimidin-5-yl-1,3-oxazol-4-yl)methyl]-2-thia-1,8-diazaspiro[4.5]dec-3-ene 2,2-dioxide, hydrochloride salt]: the IC50 by setting is: under setting [1], 0.428 µM; under setting [2], 1.45 µM.

Consider `C[C@H]1C[C@@]2(C=CS(=O)(=O)N2c2cccc(F)c2)CCN1Cc1ncoc1C1CCCO1` (stereo partly drawn) [Example 70, (5R,7S)-1-(3-fluorophenyl)-7-methyl-8-{[5-(tetrahydrofuran-2-yl)-1,3-oxazol-4-yl]methyl}-2-thia-1,8-diazaspiro[4.5]dec-3-ene 2,2-dioxide], for which the IC50 was determined as 2.56 µM under setting [1] and 6.81 µM under setting [2].

Regarding `Cc1scnc1-c1cc(CN2CC[C@]3(CCS(=O)(=O)N3c3ccccn3)C[C@@H]2C)ccc1O` [Example 90, 4-{[(5R,7S)-7-methyl-2,2-dioxido-1-(pyridin-2-yl)-2-thia-1,8-diazaspiro[4.5]dec-8-yl]methyl}-2-(5-methyl-1,3-thiazol-4-yl)phenol], the IC50 under setting [2] worked out at 3.28 µM.

Regarding `Cc1ccsc1-c1cc(CN2CC[C@]3(C=CS(=O)(=O)N3c3cccc(F)c3)C[C@@H]2C)ccc1O` [Example 5, 4-{[(5R,7S)-1-(3-fluorophenyl)-7-methyl-2,2-dioxido-2-thia-1,8-diazaspiro[4.5]dec-3-en-8-yl]methyl}-2-(3-methyl-2-thienyl)phenol, hydrochloride salt], the IC50 under setting [1] turned out to be 0.000731 µM.

For the molecule `C[C@H]1C[C@@]2(C=CS(=O)(=O)N2c2cccc(F)c2)CCN1Cc1ccc(O)c(C2CCCO2)c1` (mixture of isomers) [Example 11, 4-{[(5R,7S)-1-(3-fluorophenyl)-7-methyl-2,2-dioxido-2-thia-1,8-diazaspiro[4.5]dec-3-en-8-yl]methyl}-2-(tetrahydrofuran-2-yl)phenol], the IC50 under setting [1] was 0.0533 µM.

In the case of `C[C@H]1C[C@@]2(C=CS(=O)(=O)N2c2cccc(F)c2)CCN1Cc1scnc1-c1cccnc1` [Example 48, (5R,7S)-1-(3-fluorophenyl)-7-methyl-8-[(4-pyridin-3-yl-1,3-thiazol-5-yl)methyl]-2-thia-1,8-diazaspiro[4.5]dec-3-ene 2,2-dioxide], the IC50 reads like this: under setting [1], 5.6 µM; under setting [2], 9.03 µM.

As to `C[C@H]1C[C@]2(CCN1Cc1ccc(O)c(Cl)c1)CCS(=O)(=O)N2c1cccc(F)c1` [Example 29, 2-chloro-4-{[(5R7S)-1-(3-fluorophenyl)-7-methyl-2,2-dioxido-2-thia-1,8-diazaspiro[4.5]dec-8-yl]methyl}phenol, hydrochloride salt], the IC50 under setting [1] amounted to 0.332 µM and the IC50 under setting [2] was 1.53 µM.

Turning to `COc1ccc2[nH]c(CN3CC[C@]4(CCS(=O)(=O)N4c4cccc(F)c4)C[C@@H]3C)cc2c1` [Example 53, (5R,7S)-1-(3-fluorophenyl)-8-[(5-methoxy-1H-indol-2-yl)methyl]-7-methyl-2-thia-1,8-diazaspiro[4.5]decane 2,2-dioxide], the IC50 by setting is: under setting [1], 2.29 µM; under setting [2], 4.46 µM.

As to `Cc1ncsc1-c1ocnc1CN1CC[C@]2(C=CS(=O)(=O)N2c2cccc(F)c2)C[C@@H]1C` [Example 36, (5R,7S)-1-(3-fluorophenyl)-7-methyl-8-{[5-(4-methyl-1,3-thiazol-5-yl)-1,3-oxazol-4-yl]methyl}-2-thia-1,8-diazaspiro[4.5]dec-3-ene 2,2-dioxide], the half-inhibitory concentration (IC50) runs as follows: under setting [1], 2.51 µM; under setting [2], 6.29 µM.

In the case of `C[C@H]1C[C@@]2(C=CS(=O)(=O)N2c2cccc(F)c2)CCN1Cc1ncoc1-c1cncs1` [Example 35, (5R,7S)-1-(3-fluorophenyl)-7-methyl-8-{[5-(1,3-thiazol-5-yl}-1,3-oxazol-4-yl]methyl}-2-thia-1,8-diazaspiro[4.5]dec-3-ene 2,2-dioxide], the IC50 is, setting by setting: under setting [1], 2.18 µM; under setting [2], 3 µM.

Take `CC(C)Oc1cccc(CN2CC[C@]3(C=CS(=O)(=O)N3c3ccc(F)c(F)c3)C[C@@H]2C)c1` [Example 68, (5R,7S)-1-(3,4-difluorophenyl)-8-(3-isopropoxybenzyl)-7-methyl-2-thia-1,8-diazaspiro[4.5]dec-3-ene 2,2-dioxide, hydrochloride salt]: the 50% inhibitory concentration (IC50) is, setting by setting: under setting [1], 1.77 µM; under setting [2], 5.79 µM.

In the case of `Cc1scnc1-c1cc(CN2CC[C@]3(C=CS(=O)(=O)N3c3cccc(F)c3)C[C@@H]2C)ccc1O` [Example 73, 4-{[(5R,7S)-1-(3-fluorophenyl)-7-methyl-2,2-dioxido-2-thia-1,8-diazaspiro[4.5]dec-3-en-8-yl]methyl}-2-(5-methyl-1,3-thiazol-4-yl)phenol, ammonium sail], the IC50 under setting [1] was found to be 0.00244 µM and the IC50 under setting [2] was 0.0445 µM.

Consider `C[C@H]1C[C@]2(CCN1Cc1ncoc1C1CCCO1)CCS(=O)(=O)N2c1cccc(F)c1` (mixture of isomers) [Example 80, (5R,7S)-1-(3-fluorophenyl)-7-methyl-8-{[5-(tetrahydrofuran-2-yl)-1,3-oxazol-4-yl]methyl}-2-thia-1,8-diazaspiro[4.5]decane 2,2-dioxide], for which the IC50 under setting [2] turned out to be 6.46 µM.

`C[C@H]1C[C@@]2(C=CS(=O)(=O)N2c2cccc(F)c2)CCN1Cc1ncoc1C1CCOC1` (stereo partly drawn) [Example 71, (5R,7S)-1-(3-fluorophenyl)-7-methyl-8-{[5-(tetrahydrofuran-3-yl)-1,3-oxazol-4-yl]methyl}-2-thia-1,8-diazaspiro[4.5]dec-3-ene 2,2-dioxide]: the IC50 under setting [1] was 1.29 µM and the IC50 under setting [2] was found to be 2.49 µM.

With `Cc1ncccc1-c1ocnc1CN1CC[C@]2(C=CS(=O)(=O)N2c2cccc(F)c2)C[C@@H]1C` [Example 76, (5R,7S)-1-(3-fluorophenyl)-7-methyl-8-{[5-(2-methylpyridin-3-yl)-1,3-oxazol-4-yl]methyl}-2-thia-1,8-diazaspiro[4.5]dec-3-ene 2,2-dioxide], the IC50 by setting is: under setting [1], 0.705 µM; under setting [2], 2.97 µM.

As to `C[C@H]1CCO[C@H]1c1ocnc1CN1CC[C@]2(C=CS(=O)(=O)N2c2cccc(F)c2)C[C@@H]1C` (relative stereo) [Example 69, (5R,7S)-1-(3-fluorophenyl)-7-methy1-8-({5-[cis-3-methyltetrahydrofuran-2-yl]-1,3-oxazol-4-yl}methyl)-2-thia-1,8-diazaspiro[4.5]dec-3-ene 2,2-dioxide], under setting [2], the IC50 came to 7.07 µM.

`CC(C)Oc1cccc(CN2CC[C@@]3(C[C@@H]2C)C(=O)CS(=O)(=O)N3c2cccc(F)c2)c1` [Example 81, (5R,7S)-1-(3-fluorophenyl)-8-(3-isopropoxybenzyl)-7-methyl-2-thia-1,8-diazaspiro[4.5]decan-4-one 2,2-dioxide]: the IC50 under setting [2] worked out at 5.72 µM.

As for `C[C@H]1C[C@]2(CCN1Cc1ncoc1-c1cccnc1)CCS(=O)(=O)N2c1cccc(F)c1` [Example 32, (5R,7S)-1-(3-fluorophenyl)-7-methyl-8-[(5-pyridin-3-yl-1,3-oxazol-4-yl)methyl]-2-thia-1,8-diazaspiro[4.5]decane 2,2-dioxide, hydrochloride salt], under setting [2], the IC50 was determined as 4.29 µM.

As to `Cc1cncc(-c2ncsc2CN2CC[C@]3(C=CS(=O)(=O)N3c3cccc(F)c3)C[C@@H]2C)c1` [Example 49, (5R,7S)-1-(3-fluorophenyl)-7-methyl-8-{[4-(5-methylpyridin-3-yl)-1,3-thiazol-5-yl]methyl}-2-thia-1,8-diazaspiro[4.5]dec-3-ene 2,2-dioxide, hydrochloride salt], the IC50 under setting [1] amounted to 6.72 µM and the IC50 under setting [2] was 15.2 µM.

`Cc1ccccc1-c1cccc(CN2CC[C@]3(CCS(=O)(=O)N3c3cccc(F)c3)C[C@@H]2C)c1` [Example 52, (5R,7S)-1-(3-fluorophenyl)-7-methyl-8-[(2′-methylbiphenyl-3-yl)methyl]-2-thia-1,8-diazaspiro[4.5]decane 2,2-dioxide, formate salt]: under setting [1], the IC50 is 0.0405 µM.

In the case of `C[C@H]1C[C@]2(CCN1Cc1ccc(O)c(C3CCCO3)c1)CCS(=O)(=O)N2c1cccc(F)c1` (single isomer, unassigned) [Example 46], the IC50 was determined as 0.866 µM under setting [1] and 3.01 µM under setting [2].

Regarding `Cc1csnc1-c1cc(CN2CC[C@]3(CCS(=O)(=O)N3c3ccccn3)C[C@@H]2C)ccc1O` [Example 91, 4-{[(5R,7S)-7-methyl-2,2-dioxido-1-(pyridin-2-yl)-2-thia-1,8-diazaspiro[4.5]dec-8-yl]methyl}-2-(4-methylisothiazol-3-yl)phenol], under setting [2], the half-maximal inhibitory concentration (IC50) was 0.763 µM.

Turning to `Cc1csnc1-c1cc(CN2CC[C@]3(CCS(=O)(=O)N3c3cnccn3)C[C@@H]2C)ccc1O` [Example 88, 4-{[(5R,7S)-7-methyl-2,2-dioxido-1-(pyrazin-2-yl)-2-thia-1,8-diazaspiro[4.5]dec-8-yl]methyl}-2-(4-methylisothiazol-3-yl)phenol], the half-maximal inhibitory concentration (IC50) under setting [2] was 0.457 µM.

A word on the IC50: it is the point on the concentration scale where inhibition reaches its midpoint.
